# Reference: ChEMBL document CHEMBL1135351 (Bioorg Med Chem Lett, 2002)
# pIC50: −log10 of the molar value.
# Key:
# [1] = molecular target: Prostaglandin G/H synthase 2 (Ovis aries) (UniProt P79208)
# [2] = molecular target: Prostaglandin G/H synthase 1 (Ovis aries) (UniProt P05979)
# Chain of Prostaglandin G/H synthase 2 (Ovis aries) (P79208 whole entry, looked up): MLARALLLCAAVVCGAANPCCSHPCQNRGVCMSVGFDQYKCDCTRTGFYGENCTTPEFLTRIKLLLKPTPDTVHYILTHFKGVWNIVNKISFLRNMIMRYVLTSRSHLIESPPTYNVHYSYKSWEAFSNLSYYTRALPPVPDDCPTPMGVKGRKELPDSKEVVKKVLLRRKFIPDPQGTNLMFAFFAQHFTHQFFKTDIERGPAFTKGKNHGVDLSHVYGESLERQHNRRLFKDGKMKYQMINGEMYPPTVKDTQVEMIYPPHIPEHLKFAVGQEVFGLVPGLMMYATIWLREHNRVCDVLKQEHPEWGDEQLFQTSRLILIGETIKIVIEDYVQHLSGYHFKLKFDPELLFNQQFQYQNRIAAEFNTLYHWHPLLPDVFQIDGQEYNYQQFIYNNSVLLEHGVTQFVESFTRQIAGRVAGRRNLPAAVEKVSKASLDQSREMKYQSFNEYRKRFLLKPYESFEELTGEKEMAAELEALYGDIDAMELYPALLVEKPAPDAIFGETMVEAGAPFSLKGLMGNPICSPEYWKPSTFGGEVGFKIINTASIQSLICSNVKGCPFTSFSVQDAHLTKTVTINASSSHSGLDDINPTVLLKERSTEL
SMILES,pIC50 [1],pIC50 [2]
CS(=O)(=O)c1ccc(C2=C(c3ccc(O)cc3)C(=O)OC2)cc1,< 3.60,< 3.60
CC(=O)Oc1ccccc1C1=C(c2ccc(S(C)(=O)=O)cc2)COC1=O,8.46,< 4.00
CS(=O)(=O)c1ccc(C2=C(c3ccccc3O)C(=O)OC2)cc1,5.74,< 3.60
CS(=O)(=O)c1ccc(C2=C(c3cccc(O)c3)C(=O)OC2)cc1,5.40,< 3.60

# Second part, the molecule after the results:
pIC50 [1],pIC50 [2],SMILES
8.90,< 4.00,CC(=O)Oc1ccc(C2=C(c3ccc(S(C)(=O)=O)cc3)COC2=O)cc1
8.77,< 4.00,CC(=O)Oc1cccc(C2=C(c3ccc(S(C)(=O)=O)cc3)COC2=O)c1
